Earlier results in patent publication US20220064092A1, “METHYLATION PROCESS” (priority 2019, published 2022).

Conditions: qualitative statement

Structure (SMILES): Oc1ccc(/C=C/c2cc(O)cc(O)c2)cc1 [resveratrol, 3,5,4′-trihydroxy-trans-stilbene]
- half-life: very limited half-life
